Here are results for 28 compounds from patent publication US10864196B2, “Modulators of the integrated stress pathway” (Calico Life Sciences LLC, priority 2016, dated 2020).

Some results are limits rather than exact numbers.

The assay relates to HEK293T cells carrying the ATF4 luciferase reporter. Kind of assay: ATF4-Luc assay (in vitro model of VWMD). Type of assay: cell-based. The settings on record: Homo sapiens, HEK-293T, 1 μg/mL tunicamycin, 7 hours, One Glo luminescence. The method, then: In order to test exemplary compounds of the invention in a cellular context, a stable VWMD cell line was first constructed. The ATF4 reporter was prepared by fusing the human full-length ATF4 5′-UTR (NCBI Accession No. BC022088.2) in front of the firefly luciferase (FLuc) coding sequence lacking the initiator methionine as described in Sidrauski et al (eLife 2013). The construct was used to produce recombinant retroviruses using standard methods and the resulting viral supernatant was used to transduce HEK293T cells, which were then subsequently selected with puromycin to generate a stable cell line.
HEK293T cells carrying the ATF4 luciferase reporter were plated on polylysine coated 384-well plates (Greiner Bio-one) at 30,000 cells per well. Cells were treated the next day with 1 μg/mL tunicamycin and 200 nM of a compound of Formula (I) for 7 hours. Luminescence was measured using One Glo (Promega) as specified by the manufacturer. Cells were maintained in DMEM with L-glutamine supplemented with 10% heat-inactivated FBS (Gibco) and Antibiotic-Antimycotic solution (Gibco).
Table 2 below summarizes the EC50 data obtained using the ATF4-Luc assay for exemplary compounds of the invention.
Consider `O=C(COc1ccc(Cl)cc1)NC12CC(c3nnc(COc4ccc(Cl)cc4)o3)(C1)C2` [Compound 100, 2-(4-chlorophenoxy)-N-(3-{5-[(4-chlorophenoxy)methyl]-1,3,4-oxadiazol-2-yl}bicyclo[1.1.1]pentan-1-yl)acetamide], for which the 50% effective concentration (EC50) lay within 50 to 250 nM.
Regarding `O=C(COc1ccc(Cl)cc1)NC12CC(c3nc(COc4ccc(Cl)cc4)no3)(C1)C2` [Compound 101, 2-(4-chlorophenoxy)-N-(3-{3-[(4-chlorophenoxy)methyl]-1,2,4-oxadiazol-5-yl}bicyclo[1.1.1]pentan-1-yl)acetamide], the EC50 is below 50 nM.
In the case of `Cc1cccc(OCC(=O)NC23CC(c4nc(COc5ccc(Cl)cc5)no4)(C2)C3)c1` [Compound 102, N-(3-{3-[(4-chlorophenoxy)methyl]-1,2,4-oxadiazol-5-yl}bicyclo[1.1.1]pentan-1-yl)-2-(3-methylphenoxy)acetamide], the EC50 was 1000 to 2000 nM.
For `Cc1ccc(OCC(=O)NC23CC(c4nc(COc5ccc(Cl)cc5)no4)(C2)C3)cc1` [Compound 103, N-(3-{3-[(4-chlorophenoxy)methyl]-1,2,4-oxadiazol-5-yl}bicyclo[1.1.1]pentan-1-yl)-2-(4-methylphenoxy)acetamide] the value was 50 to 250 nM; for `Cc1cc(OCC(=O)NC23CC(c4nc(COc5ccc(Cl)cc5)no4)(C2)C3)ccc1Cl` [Compound 104, 2-(4-chloro-3-methylphenoxy)-N-(3-{3-[(4-chlorophenoxy)methyl]-1,2,4-oxadiazol-5-yl}bicyclo[1.1.1]pentan-1-yl)acetamide], 250 to 1000 nM; for `O=C(COc1ccc(Cl)c(Cl)c1)NC12CC(c3nc(COc4ccc(Cl)cc4)no3)(C1)C2` [Compound 105, N-(3-{3-[(4-chlorophenoxy)methyl]-1,2,4-oxadiazol-5-yl}bicyclo[1.1.1]pentan-1-yl)-2-(3,4-dichlorophenoxy)acetamide], below 50 nM.
For `O=C(COc1cccc(Cl)c1)NC12CC(c3nc(COc4ccc(Cl)cc4)no3)(C1)C2` [Compound 106, 2-(3-chlorophenoxy)-N-(3-{3-[(4-chlorophenoxy)methyl]-1,2,4-oxadiazol-5-yl}bicyclo[1.1.1]pentan-1-yl)acetamide] the value was 250 to 1000 nM; for `O=C(COc1cccc(F)c1)NC12CC(c3nc(COc4ccc(Cl)cc4)no3)(C1)C2` [Compound 107, N-(3-{3-[(4-chlorophenoxy)methyl]-1,2,4-oxadiazol-5-yl}bicyclo[1.1.1]pentan-1-yl)-2-(3-fluorophenoxy)acetamide], 250 to 1000 nM; for `O=C(COc1ccc(F)cc1)NC12CC(c3nc(COc4ccc(Cl)cc4)no3)(C1)C2` [Compound 108, N-(3-{3-[(4-chlorophenoxy)methyl]-1,2,4-oxadiazol-5-yl}bicyclo[1.1.1]pentan-1-yl)-2-(4-fluorophenoxy)acetamide], 250 to 1000 nM.
For `O=C(COc1ccc(Cl)c(Cl)c1)NC12CC(c3nnc(COc4ccc(Cl)cc4)o3)(C1)C2` [Compound 109, N-(3-{5-[(4-chlorophenoxy)methyl]-1,3,4-oxadiazol-2-yl}bicyclo[1.1.1]pentan-1-yl)-2-(3,4-dichlorophenoxy)acetamide] the value was below 50 nM.
Take `O=C(COc1ccc(Cl)c(F)c1)NC12CC(c3nc(COc4ccc(Cl)cc4)no3)(C1)C2` [Compound 110, 2-(4-chloro-3-fluorophenoxy)-N-(3-{3-[(4-chlorophenoxy)methyl]-1,2,4-oxadiazol-5-yl}bicyclo[1.1.1]pentan-1-yl)acetamide]: the EC50 is 50 to 250 nM.
For `O=C(COc1ccc(Cl)cc1F)NC12CC(c3nc(COc4ccc(Cl)cc4)no3)(C1)C2` [Compound 111, 2-(4-chloro-2-fluorophenoxy)-N-(3-{3-[(4-chlorophenoxy)methyl]-1,2,4-oxadiazol-5-yl}bicyclo[1.1.1]pentan-1-yl)acetamide] the value was 50 to 250 nM; for `Cc1cc(COCC(=O)NC23CC(c4nc(COc5ccc(Cl)cc5)no4)(C2)C3)no1` [Compound 112, N-(3-{3-[(4-chlorophenoxy)methyl]-1,2,4-oxadiazol-5-yl}bicyclo[1.1.1]pentan-1-yl)-2-[(5-methyl-1,2-oxazol-3-yl)methoxy]acetamide], above 2000 nM; for `O=C(COc1ccc(Cl)c(F)c1)NC12CC(c3noc(COc4ccc(Cl)cc4)n3)(C1)C2` [Compound 113, 2-(4-chloro-3-fluorophenoxy)-N-(3-{5-[(4-chlorophenoxy)methyl]-1,2,4-oxadiazol-3-yl}bicyclo[1.1.1]pentan-1-yl)acetamide], below 50 nM.
For `O=C(COc1ccc(C(F)(F)F)nc1)NC12CC(c3nc(COc4ccc(Cl)cc4)no3)(C1)C2` [Compound 114, N-(3-{3-[(4-chlorophenoxy)methyl]-1,2,4-oxadiazol-5-yl}bicyclo[1.1.1]pentan-1-yl)-2-{[6-(trifluoromethyl)pyridin-3-yl]oxy}acetamide] the value was 250 to 1000 nM; for `O=C(COc1ccc(Cl)c(F)c1)NC12CC(c3nnc(COc4ccc(Cl)c(F)c4)o3)(C1)C2` [Compound 115, 2-(4-chloro-3-fluorophenoxy)-N-(3-{5-[(4-chloro-3-fluorophenoxy)methyl]-1,3,4-oxadiazol-2-yl}bicyclo[1.1.1]pentan-1-yl)acetamide], below 50 nM.
In the case of `O=C(COc1ccc(Cl)c(F)c1)NC12CC(c3nnc(Oc4ccc(C(F)(F)F)nc4)o3)(C1)C2` [Compound 116, 2-(4-chloro-3-fluorophenoxy)-N-[3-(5-{[6-(trifluoromethyl)pyridin-3-yl]oxy}-1,3,4-oxadiazol-2-yl)bicyclo[1.1.1]pentan-1-yl]acetamide] it was 50 to 250 nM; in that of `O=C(COc1ccc(Cl)c(F)c1)NC12CC(c3nnc(Oc4cncc(C(F)(F)F)c4)o3)(C1)C2` [Compound 117, 2-(4-chloro-3-fluorophenoxy)-N-[3-(5-{[5-(trifluoromethyl)pyridin-3-yl]oxy}-1,3,4-oxadiazol-2-yl)bicyclo[1.1.1]pentan-1-yl]acetamide], 50 to 250 nM.
In the case of `Cc1cc(Oc2nnc(C34CC(NC(=O)COc5ccc(Cl)c(F)c5)(C3)C4)o2)cnc1C#N` [Compound 118, 2-(4-chloro-3-fluorophenoxy)-N-(3-{5-[(6-cyano-5-methylpyridin-3-yl)oxy]-1,3,4-oxadiazol-2-yl}bicyclo[1.1.1]pentan-1-yl)acetamide], the EC50 was in the range of 250 to 1000 nM.
For `N#Cc1ccc(Oc2nnc(C34CC(NC(=O)COc5ccc(Cl)c(F)c5)(C3)C4)o2)cn1` [Compound 119, 2-(4-chloro-3-fluorophenoxy)-N-(3-{5-[(6-cyanopyridin-3-yl)oxy]-1,3,4-oxadiazol-2-yl}bicyclo[1.1.1]pentan-1-yl)acetamide] the value was 250 to 1000 nM; for `COc1ccc(Oc2nnc(C34CC(NC(=O)COc5ccc(Cl)c(F)c5)(C3)C4)o2)cn1` [Compound 120, 2-(4-chloro-3-fluorophenoxy)-N-(3-{5-[(6-methoxypyridin-3-yl)oxy]-1,3,4-oxadiazol-2-yl}bicyclo[1.1.1]pentan-1-yl)acetamide], 50 to 250 nM; for `O=C(COc1ccc(Cl)c(F)c1)NC12CC(c3nnc(Oc4ccc(C5CC5)nc4)o3)(C1)C2` [Compound 121, 2-(4-chloro-3-fluorophenoxy)-N-(3-{5-[(6-cyclopropylpyridin-3-yl)oxy]-1,3,4-oxadiazol-2-yl}bicyclo[1.1.1]pentan-1-yl)acetamide], 50 to 250 nM.
In the case of `O=C(COc1ccc(Cl)c(F)c1)NC12CC(c3nnc(COc4cncc(C(F)(F)F)c4)o3)(C1)C2` [Compound 122, 2-(4-chloro-3-fluorophenoxy)-N-{3-[5-({[5-(trifluoromethyl)pyridin-3-yl]oxy}methyl)-1,3,4-oxadiazol-2-yl]bicyclo[1.1.1]pentan-1-yl}acetamide] it was 50 to 250 nM; in that of `Cc1ccc(Oc2nnc(C34CC(NC(=O)COc5ccc(Cl)c(F)c5)(C3)C4)o2)cc1` [Compound 123, 2-(4-chloro-3-fluorophenoxy)-N-{3-[5-(4-methylphenoxy)-1,3,4-oxadiazol-2-yl]bicyclo[1.1.1]pentan-1-yl}acetamide], 50 to 250 nM; in that of `COc1ccccc1Oc1nnc(C23CC(NC(=O)COc4ccc(Cl)c(F)c4)(C2)C3)o1` [Compound 124, 2-(4-chloro-3-fluorophenoxy)-N-{3-[5-(2-methoxyphenoxy)-1,3,4-oxadiazol-2-yl]bicyclo[1.1.1]pentan-1-yl}acetamide], above 2000 nM.
For `COc1ccc(Oc2nnc(C34CC(NC(=O)COc5ccc(Cl)c(F)c5)(C3)C4)o2)cc1` [Compound 125, 2-(4-chloro-3-fluorophenoxy)-N-{3-[5-(4-methoxyphenoxy)-1,3,4-oxadiazol-2-yl]bicyclo[1.1.1]pentan-1-yl}acetamide] the value was 250 to 1000 nM; for `O=C(COc1ccc(Cl)c(F)c1)NC12CC(c3nnc(Oc4ccc(F)cc4)o3)(C1)C2` [Compound 126, 2-(4-chloro-3-fluorophenoxy)-N-{3-[5-(4-fluorophenoxy)-1,3,4-oxadiazol-2-yl]bicyclo[1.1.1]pentan-1-yl}acetamide], below 50 nM.
For `O=C(COc1ccc(Cl)c(F)c1)NC12CC(c3nnc(Oc4ccccc4Cl)o3)(C1)C2` [Compound 127, 2-(4-chloro-3-fluorophenoxy)-N-{3-[5-(2-chlorophenoxy)-1,3,4-oxadiazol-2-yl]bicyclo[1.1.1]pentan-1-yl}acetamide], the EC50 was in the range of 250 to 1000 nM.
